What was measured:
[1] = system: pyroglutamylated CD47 (pE-CD47) in KBM7 cells; assay: Assay 6 - cell-based potency assay (pE-CD47 CC2C6 staining vs total CD47); set-up: species or system human; details: Homo sapiens, KBM-7, 72 h, CC2C6 signal, read-out: Cell Pot. Assay No. 6
Protocol: Cells were spun for 4 minutes at 1500 rpm and washed once with PBS/0.5% BSA. Cells were spun down again and the supernatant was removed and incubated in 100 uL antibody staining solution (PBS/0.5% BSA/0.1 μg/mL DAPI (4′,6-diamidino-2-phenylindole, ThermoFisher Scientific) and a mixture of 1:500 FITC-conjugated anti-human CD47 clone 2D3, which recognizes total CD47 irrespective of its pyroglutamylation state, and 1:500 Alexa647-conjugated anti-human CD47 clone CC2C6, which specifically detects pyroglutamylated CD47) for 2 hours at 4° C. Next, the cells were spun down and washed twice with 2×150 μL PBS/0.5% BSA to remove unbound antibody. Cells were again spun down and taken up in 300 μL FACS buffer before analysis on a Celesta FACS machine (BD Biosciences).
KBM7 cells (Kotecki et al., 1999) were infected with lentivirus produced by transfecting pSCNC-LentiCRISPR-QPCTL or pSCNC-LentiCRISPR-CD47 into HEK-293T cells according to standard protocols. After 24 hours incubation, cells were selected with puromycin (Invivogen, 1 μg/mL) for 48 hours. Cells were stained for total CD47 and pE-CD47 and QPCTL k.o. cells were sorted out as negative for pE-CD47, and CD47 k.o. cells as negative for total CD47, using a FACSAria III and FACS Diva software (BD Biosciences).
In order to test compounds for their effect on pyroglutamylation in live cells, 25000 KBM7 cells per well were seeded in a 96-well U-bottom plate in 150 μl IMDM/10% FCS/1% Pen/Strep medium and a 10-point 2-fold dilution range of test compounds. After 72 hours incubation at 37° C., 5% CO2, cells were stained for total CD47 and pE-CD47 and analyzed on a BD Celesta using FACS Diva software (BD Biosciences). Cells gated for DAPI negativity were recorded and the median fluorescence intensity (MFI) of each sample was transformed to linearly scale between the MFI's of wildtype and CD47 knockout cells (in case of the 2D3 antibody) and the wildtype and QPCTL knockout cells (in case of the CC2C6 antibody). IC50's were calculated by 3 parameter logistic regression of the CC2C6 signal vs. compound concentration, where the top of the sigmoidal curve was fixed at 1, using R and the drc package (http://www.r-project.org, https://cran.r-project.org/web/packages/drc/index.html).

human isoQC (S53-L382) [2] = biological target: T1, human isoQC (S53-L382) (Homo sapiens, UniProt Q9NXS2); assay: Assay 2 - isoQC potency, mass spectrometry-based enzymatic potency assay; type: biochemical; details: mass spectrometry read-out, 7.5 nM isoQC, 10 μM H-Gln-AMC; read-out: isoQc Pot. Assay No. 2
T1 construct: enzymatically active region of human isoQC (S53-L382; see, e.g., Huang et al., 2011); GST-Enterokinase site (N, cleaved yes); made in house; host or cells: E. coli
T1 sequence (Q9NXS2 53-382): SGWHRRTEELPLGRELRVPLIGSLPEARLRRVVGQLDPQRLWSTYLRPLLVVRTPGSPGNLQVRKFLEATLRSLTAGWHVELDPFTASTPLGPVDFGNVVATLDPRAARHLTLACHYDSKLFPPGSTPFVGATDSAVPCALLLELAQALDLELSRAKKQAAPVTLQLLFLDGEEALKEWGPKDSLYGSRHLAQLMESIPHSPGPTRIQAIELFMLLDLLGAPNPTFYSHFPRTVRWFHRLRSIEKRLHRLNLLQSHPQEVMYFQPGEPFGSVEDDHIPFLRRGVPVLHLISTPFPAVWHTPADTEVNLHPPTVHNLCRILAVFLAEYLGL
Protocol: (§1) The Golgi luminal, enzymatically active region of human isoQC (S53-L382; see, e.g., Huang et al., 2011) was obtained by expression in E. coli of an N-terminally GST-Enterokinase and C-terminally 6×His tagged construct in the pET41(+) vector and subsequent purification using talon beads and GST beads, enterokinase digestion and further purification with a final formulation in 25 mM Tris pH 8.0/150 mM NaCl/1 mM TCEP. Absence of pyroglutamylating activity in an enzymatic dead variant that was cloned, expressed, and purified in parallel ruled out that the purification strategy isolates any endogenously present pyroglutamylating activity.
(§2) EC50's of test compounds were determined by incubating 11-point two-fold dilutions of test compound in 20 μL volumes in the presence of 7.5 nM isoQC and 10 μM H-Gln-AMC using 50 mM Tris-HCl pH 8.0 as assay buffer for 2 hours at room temperature before stopping the reaction by the addition of 2 volumes of methanol. Both the substrate and the product of this reaction were read out using an Agilent RapidFire microfluidic solid phase sample extraction system coupled to an AB Sciex API 4000 triple quadrupole mass spectrometer, in negative ion mode, at m/z of 301.9 and 284.9 respectively. The actual readout was defined as P/(S+P), where P is the product signal area and S the substrate signal area. EC50's were calculated by four parameter sigmoidal model fitting.

recombinant human QC = biological target: T2, recombinant human QC (Homo sapiens, UniProt Q16769); assay: Assay 4 - QC potency, mass spectrometry-based enzymatic potency assay; type: biochemical; details: mass spectrometry read-out; read-out: QC Pot. Assay No. 4
T2 construct: His6 (N); purchased R&D Systems
T2 sequence (Q16769 29-361): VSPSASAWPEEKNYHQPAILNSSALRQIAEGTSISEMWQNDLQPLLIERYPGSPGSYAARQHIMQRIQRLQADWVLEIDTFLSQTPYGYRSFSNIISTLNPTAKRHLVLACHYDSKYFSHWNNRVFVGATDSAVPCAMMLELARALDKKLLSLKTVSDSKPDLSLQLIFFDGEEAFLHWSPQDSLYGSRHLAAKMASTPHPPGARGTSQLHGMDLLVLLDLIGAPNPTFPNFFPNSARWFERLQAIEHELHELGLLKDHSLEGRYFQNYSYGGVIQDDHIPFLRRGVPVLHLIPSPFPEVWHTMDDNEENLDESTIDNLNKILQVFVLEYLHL
Protocol: as §2
EC50's of test compounds were determined in the same way as described in Assay 2 above, except that N-terminally His6-tagged recombinant human QC (R&D Systems) was used instead of isoQC.

human isoQC (S53-L382) [3] = biological target: T1, human isoQC (S53-L382); assay: Assay 1 - isoQC inhibition, fluorescent enzymatic assay (single concentration); type: biochemical; details: isoQC inhibition at 250 nM test compound; read-out: isoQc Inh. Assay No. 1
Protocol: Initially, isoQC inhibitory activity was measured at a single concentration in a fluorescent-based assay (Assay 1 below). In order to establish the inhibitory activity more quantitatively, IC50 values were obtained using a mass spectrometry-based assay where pyroglutamylation by either isoQC or QC was measured (Assays 2 and 4, respectively, below). Alternatively, IC50 values for isoQC or QC were obtained using a fluorescence-based assay (Assays 3 and 5 respectively, below).
as §1
Pyroglutamylation was measured by conversion of glutamine-4-amino-7-methylcoumarine (H-Gln-AMC, Bachem) to pyroglutamyl-AMC, which is subsequently a specific substrate for pyroglutamylaminopeptidase (pGAPase, Qiagen), releasing free AMC which can be fluorescently detected. For a typical inhibition assay, 15 μL 20 μM h-Gln-AMC (diluted from a 40 mM stock dissolved in 25 mM HEPES using 50 mM Tris-HCl pH 8.0) was pipetted into a 96-well plate on ice. Next, 7.5 μL 1 μM test compound (diluted from a 10 mM stock dissolved in DMSO using 50 mM Tris-HCl) was added. Finally, 7.5 μL, 3 ng/μL recombinant isoQC enzyme was added and the reaction mixture was incubated for 1 hour at 37° C. A 5 minute incubation at 98° C. was then performed to denature the isoQC enzyme and stop the reaction.
To detect the amount of pyroglutamyl-AMC formed, a 96-well plate was prepared with 25 μL 0.125 U/mL pGAPase enzyme diluted in 50 mM Tris-HCl pH 8.0 containing 10 mM dithiothreitol (DTT). 25 μL of the pyroglutamylation reaction mixture was transferred into the plate containing the pGAPase solutions while on ice. Once done, the plate was moved over to a Spectramax ID3 fluorescent plate-reader to monitor and record the maximum fluorescence at 380 nm excitation/450 nm emission over a period of 20 minutes while keeping the temperature at 37° C.
DMSO concentrations during the assay never exceeded 1% and activities were compared to controls containing only the same amount of DMSO and no test compound. […] Test compounds were reported as active when <40% of background corrected signal was measured as compared to DMSO controls.

| Compound | IC50 [1] | IC50 (human isoQC (S53-L382) [2]) | IC50 (recombinant human QC) | inhibition at 0.25 µM (human isoQC (S53-L382) [3]) |
| --- | --- | --- | --- | --- |
| Cc1c2c(nn1C)C(=O)N(c1ccc3[nH]cnc3c1)C2c1ccc(N2CCCCC2=O)cc1 (centres unmarked) [FRPPO-017] | ≥ 50000 nM | 25 to 100 nM | 25 to 100 nM | > 40% |
| Cc1c2c(nn1C)C(=O)N(c1ccc3[nH]cnc3c1)C2c1ccc(OCC(C)(F)F)c(F)c1F (centres unmarked) [FRPPO-019] | < 1000 nM | 25 to 100 nM | < 25 nM | > 40% |
| Cc1c2c(nn1C)C(=O)N(c1ccc3[nH]cnc3c1)C2c1ccc2nsnc2c1 (centres unmarked) [FRPPO-020] | 1000 to 5000 nM | < 25 nM | 25 to 100 nM | > 40% |
| Cc1c2c(nn1C)C(=O)N(c1ccc3[nH]cnc3c1)C2c1ccc(Oc2cnn(C)c2)cc1 (centres unmarked) [FRPPO-025] | 5000 to 50000 nM | < 25 nM | 25 to 100 nM | > 40% |
| Cc1c2c(nn1C)C(=O)N(c1ccc3[nH]cnc3c1)C2c1ccc(N2CCS(=O)(=O)CC2)cc1 (centres unmarked) [FRPPO-027] | 1000 to 5000 nM | < 25 nM | < 25 nM | > 40% |
| Cc1c2c(nn1C)C(=O)N(c1ccc3[nH]cnc3c1)C2c1ccc(N2CCC(F)(F)C2)cc1F (centres unmarked) [FRPPO-028A] | < 1000 nM | < 25 nM | 25 to 100 nM | > 40% |
| CCCOc1ccc(C2c3c(nn(CC)c3C)C(=O)N2c2ccc3[nH]cnc3c2)cc1 (centres unmarked) [FRPPO-029] | < 1000 nM | 25 to 100 nM | 100 to 5000 nM | > 40% |
| CCCOc1ccc(C2c3c(nn(COC)c3C)C(=O)N2c2ccc3[nH]cnc3c2)cc1 (centres unmarked) [FRPPO-031] | 1000 to 5000 nM | 25 to 100 nM | 100 to 5000 nM | > 40% |
| CCCOc1ccc(C2c3c(nn(CC(F)F)c3C)C(=O)N2c2ccc3[nH]cnc3c2)cc1 (centres unmarked) [FRPPO-032] | 1000 to 5000 nM | 100 to 5000 nM | 100 to 5000 nM | ≤ 40% |
| CCCOc1ccc(C2c3c(nn(C4CCC4)c3C)C(=O)N2c2ccc3[nH]cnc3c2)cc1 (centres unmarked) [FRPPO-033] | 1000 to 5000 nM | 100 to 5000 nM | 100 to 5000 nM | > 40% |

Further lines, results first:

| IC50 [1] | IC50 (human isoQC (S53-L382) [2]) | IC50 (recombinant human QC) | inhibition at 0.25 µM (human isoQC (S53-L382) [3]) | Compound |
| --- | --- | --- | --- | --- |
| 5000 to 50000 nM | < 25 nM | < 25 nM | > 40% | COc1ccc(C2c3c(nn(C)c3C)C(=O)N2c2ccc3[nH]cnc3c2)cc1O (centres unmarked) [FRPPO-018] |
| 1000 to 5000 nM | 100 to 5000 nM | 100 to 5000 nM | > 40% | CCCOc1ccc(C2c3c(nn(C(C)C)c3C)C(=O)N2c2ccc3[nH]cnc3c2)cc1 (centres unmarked) [FRPPO-030] |
| 1000 to 5000 nM | 100 to 5000 nM | 100 to 5000 nM | > 40% | CCCOc1ccc(C2c3c(nn(CC4CC4)c3C)C(=O)N2c2ccc3[nH]cnc3c2)cc1 (centres unmarked) [FRPPO-034] |
| 1000 to 5000 nM | 100 to 5000 nM | 100 to 5000 nM | > 40% | CCCOc1ccc(C2c3c(nn(C4CCOCC4)c3C)C(=O)N2c2ccc3[nH]cnc3c2)cc1 (centres unmarked) [FRPPO-035] |
